This note sets out measurements from patent US10648917B2, “Luminescent compositions and applications thereof” (THE PENN STATE RESEARCH FOUNDATION, priority 2015, dated 2020).

Common to all, as to format: physicochemical
Series [1] is described as follows: Fluorescence spectra, absorbance and quantum yield (spectrofluorometer, integration sphere). The following applies: for Φ (quantum yield) / λem (maximum emission wavelength) / λex (maximum excitation wavelength) / ϵ (extinction coefficiency): Table III. As for the experimental part:
Fluorescence spectra were recorded by a Horiba FluoroMax-4 spectrofluorometer. All polymer and small molecule samples were measured at a concentration of 2% w/w in 1,4-dioxane or DI water and a slit size of 1 nm by 1 nm unless otherwise specified. Quantum yields were also determined on the same spectrofluorometer by using a Quantum-φ integration sphere at the same concentration and slit size with the blank solvent as the reference. ^1H-NMR, ^13C-NMR were performed on a JNM ECS 300 spectrometer using DMSO-d6 or D2O as solvents. Attenuated total reflection Fourier transform infrared (ATR-FTIR) spectra were collected with a Bruker V70 spectrometer using BPLP films. A Shimadzu HPLC-MS system with a Phenomenex Kinetex 2.6u XB-C18 100 mm×2.9 mm column, a SPD M20A PDA detector and a RF-20AXS fluorescence detector (Ex. 360 nm and Em. 430 nm) was used to characterize the structures of fluorophores as well. The mobile phase was a gradient of DI water and acetonitrile with 0-6 min 2% acetonitrile, 6-12 min 2%-30% acetonitrile, and 12-15 min 2% acetonitrile. The flow rate was 0.15 ml/min. Electrospray ionization mass spectroscopy (ESI-MS) was performed with a positive voltage of 4.5 kV and negative mode voltage −4.0 kV and a CDL temperature of 200° C. The analysis of the degradation products of BPLPs were conducted by immersing BPLPs in 1M K2CO3 solution at 37° C. for 24 hours. After degradation, the solutions were neutralized by 1N HCl solution to pH 7 and characterized by HPLC-MS as described above.
(§1) Fluorescence spectra were recorded by a Horiba FluoroMax-4 spectrofluorometer. All samples were measured at a concentration corresponding to an optical density of 0.1 in water and a slit size of 1 nm by 1 nm unless specified. Quantum yields were also determined on same spectrofluorometer by using a Quantum-φ integration sphere at samples' maximum excitation wavelength and at an increment of 0.3 nm. Photostability studies were done by continuously exciting samples at their maximum excitation wavelength and monitoring at the maximum emission wavelength.
(§2) Fluorescence spectra were recorded on a Horiba FluoroMax-4 spectrofluorometer (Horiba Scientific, Edison N.J.). All polymer and samples were characterized at a concentration of 2 wt % in 1,4-dioxane and a slit size of 1 nm by 1 nm unless otherwise specified. The fluorescence properties of small molecule dyes were also measure in 2 wt % DI water solutions at same conditions as polymer solutions. BPLPs were also degraded in 1M K2CO3 solution at 37° C. for 24 hours and then neutralized with 1N HCl solution to pH7. The resulting degradation solutions were subject to further PL characterizations. Quantum yields were also determined on the same spectrofluorometer by using a Quantum-φ integration sphere (Horiba Scientific, Edison N.J.) at the same concentration and slit size with the blank solvent as the reference. Photostability of small molecules and polymers were determined by monitoring the emission intensity decay at their max. Excitation and emission wavelengths over 3 hours of continuous lumination in the spectrofluorometer.
(§3) Absorbance Spectra were recorded on Tecan Infinite M200 Pro UV-vis spectroscopy, and fluorescence spectra were recorded on Horiba FluoroMax-4 fluorospectroscopy at concentrations below 0.1 O.D. unless otherwise indicated. Quantum Yields were measured on the Quantum φ Integrating Sphere accessory to the FluoroMax-4, while lifetime measurements were determined through the Time-Correlation Single Photon Counting (TCSPC) accessory to the FluroMax-4. TCSPC was utilized in conjunction with NanoLED pulsed diode light source with peak excitation wavelength at 352 nm and at 10,000 counts peak preset. Emission was collected at the fluorescence λmax, unless otherwise indicated. For all pH-dependence experiments, sample pH was adjusted with sulfuric acid or sodium hydroxide. For all chloride-dependent quenching experiments, magnesium chloride hexahydrate (Sigma Aldrich) was used.

The nature of series [2]: Photostability under continuous excitation for 3 hours. The following applies: 3 hours continuous excitation. As to the method:
as §1, §2
Photostability of CFDs was characterized thereafter, since traditional organic dyes suffer from photobleaching. Various CFDs were tested under their maximum excitation and emission wavelengths for 3 hours, and the photoluminescence was normalized to the initial intensity.

A short description of series [3]: pH dependence of fluorescence / pH sensing. As to the method:
as §3
pH Dependence of CA-Cys Fluorescence. Of all solvent and environmental factors that affect fluorescence, CA-Cys appeared to display the greatest sensitivity to changes in pH. […] From a detailed analysis of FIG. 13, four correlations were observed. Fluorescence properties of CA-Cys were invariable from high basicity to a pH of 4.84, from which the excitation λmax began to red-shift from 350 nm, emission λmax began to red-shift from 418 nm, maximum fluorescence intensity began to decrease, and quantum yield began to decrease. As acidity was increased, all four trends continued until pH 2.44, from which the excitation λmax plateaued at 365 nm, emission plateaued at 445 nm, and fluorescence intensity and quantum yield both experienced a short local plateau. Similarly, Stokes shift increased from 67 nm to 80 nm in high acidity. Lastly, absorbance λmax shifted similarly to that of the maximum excitation, while absorbance intensities remained relatively constant. […] All of these patterns were reminiscent of a pH-dependent equilibrium, thus the predominant mechanism of intensity quenching and bathochromic shifts was hypothesized to be attributed to changes in protolytic equilibria. The noticeably linear quenching of intensities past pH 1.63 is discussed with respect to lifetime analysis herein below.
There is a predictable, linear increase in intensity from pH 3 to 4.5. Furthermore, emission collected at a fixed 445 nm is shown in FIG. 15 to be an isobestic point where intensities are independent of pH (up to pH 1), which should greatly improve the functionality of CA-Cys as a pH sensor. In other words, utilizing 445 nm as a dual-wavelength reference point allows for background subtraction and normalization with respect to absorbance or concentration. […] Furthermore, I418 nm/I445 nm increases linearly in the region of pH 3 to 4.5 for accurate determination of pH within this region, plotted and fitted with an R^2 value of 0.982. To sum up, I418 nm/I445 nm values near 1.6 indicate pH above 4.5, values below 0.7 indicate highly acidic environments below pH 3, while any intermediate I418 nm/I445 nm values can determine the exact pH with good accuracy. It is important to note that CA-Cys fluorescence is in accordance with Kasha's rule, i.e. fluorescence occurs from the lowest excited state, S1→S0, thus the emission λmax is independent of the excitation wavelength, and a fluorescence excitation scan at a fixed emission of 418 nm or 445 nm would provide the maximum fluorescence intensity for that emission wavelength. Also of importance is the reliable range of the isobestic point, which is broken at high acidities (noticeably below pH 1) due to dynamic quenching effects.

Series [4] in a line: Time-resolved fluorescence lifetime (TCSPC). The following applies: one-exponential decay, pulsed excitation at 352 nm, maximum emission wavelength. As to the method:
Fluorescence lifetimes were determined by using the Time-Correlation Single Photon Counting (TCSPC) accessory to the FluroMax-4 (Horiba, NJ). NanoLED pulse light sources at wavelengths of 352 nm and 390 nm were used for excitation. For each decay curve, 10,000 photons were collected. Fluorescence lifetime decays were fitted with an exponential series according to equation 1 below:
[formula] where F(t) is the lifetime decay function with respect to time t, Ti is the lifetime value of the emitting species, A is the background offset, and Bi is the pre-exponential function of the emitting species. The method of least squares was used to quantify χ^2 based on the decay data and the fitting function, where χ^2 values smaller than 1.2 indicates a good fit; and values above 1.2 indicate need for multiple exponential fitting in equation 1. If the lifetime decay is dominated by one emitting species, the equation can be simplified to include only the first two terms. One exponential fitting is good for TPA based fluorophores. However, for DPR based fluorophores, only three exponential fitting gives a χ^2 smaller than 1.2. E. Computational Modeling
as §3
Fluorescence lifetime decays were fitted with an exponential series according to equation 5 below:
[formula] Where F(t) is the lifetime decay function with respect to time t, Ti is the lifetime value of the emitting species, A is the background offset, and Bi is the pre-exponential function of the emitting species. If the lifetime decay is dominated by one emitting species, the equation can be simplified to include only the first two terms. Bi measures the relative amplitude of the specified fluorophore, where the percent contribution of the fluorophore to the lifetime decay, f, is derived from equation 6:
[formula] The method of least squares was used to quantify χ^2 based on the decay data and the fitting function, where χ^2 values under 1.2 indicates a good fit, and values above 1.2 indicate need for additional terms in equation 5. Typically, an additional exponential term was necessary to improve the χ^2 value and account for the presence of a negligible 6 ns species, deemed to stem from by-products of CFD synthesis, impurities, or CFD dimers. Since the contribution from this species was minor, often less than 5%, it was not included in lifetime analysis.

Regarding `CCCN1C(=O)C=C(C(=O)O)CC1=O` [CA-Propylamine], in series [1] (CFD dyes), the “Shifting (emission shifting with excitation wavelength)” value is “Yes”. For the same compound, in series [1], the “Φ (quantum yield)” value is 24.6%, the “λem (maximum emission wavelength)” value turned out to be 424 nm, the “λex (maximum excitation wavelength)” value is 359 nm and the “ϵ (extinction coefficiency)” value turned out to be 6.6 M⁻¹ cm⁻¹. In addition, in series [1] (representative CFDs, Table I), the “Max. Em. Wavelength” value is on record as 422 nm, the “Max. Ex. Wavelength” value was found to be 359 nm and the “Quantum Yield” value is listed as 22.1%. Besides, the “photobleaching relative to Fluorescein and Rhodamine B” value in series [2] is “less stable”. The pH sensitivity result in series [3] is listed as “PH insensitive”.

Regarding `CC(C)C(C(=O)O)N1C(=O)C=C(C(=O)O)CC1=O` (stereo not shown) [CA-Valine], in series [1], the “Φ (quantum yield)” value was determined as 17.5%, the “λem (maximum emission wavelength)” value amounted to 428 nm, the “λex (maximum excitation wavelength)” value is recorded as 361 nm and the “ϵ (extinction coefficiency)” value is 5.3 M⁻¹ cm⁻¹.

Consider `O=C(O)C1=CC(=O)N(CCO)C(=O)C1` [CA-ethanolamine], for which, in series [1], the “Φ (quantum yield)” value stood at 42.1%, the “λem (maximum emission wavelength)” value is 419 nm, the “λex (maximum excitation wavelength)” value is listed as 368 nm and the “ϵ (extinction coefficiency)” value is 34.6 M⁻¹ cm⁻¹.

As to `O=C(O)CCCN1C(=O)C=C(C(=O)O)CC1=O` [CA-γ-Aminobutyric acid], in series [1], the “Φ (quantum yield)” value was determined as 22.1%, the “λem (maximum emission wavelength)” value came out at 422 nm, the “λex (maximum excitation wavelength)” value is reported as 355 nm and the “ϵ (extinction coefficiency)” value worked out at 4.9 M⁻¹ cm⁻¹.

Turning to `CCN(CC)c1ccc2c(-c3ccccc3C(=O)O)c3ccc(=[N+](CC)CC)cc-3oc2c1.[Cl-]` [Rhodamine B, reference compound], the “fluorescence lifetime τ” value in series [4] is 1.75 ns.

Regarding `CC(C(=O)O)N1C(=O)CC(C(=O)O)CC1=O` (stereo not shown) [TCA-Alanine], in series [1], the “Φ (quantum yield)” value is listed as 0.2%, the “λem (maximum emission wavelength)” value is reported as 423 nm, the “λex (maximum excitation wavelength)” value is 355 nm and the “ϵ (extinction coefficiency)” value was determined as 6.1 M⁻¹ cm⁻¹.

As to `O=C(O)C1CC(=O)N(C(CS)C(=O)O)C(=O)C1` (stereo not shown) [TCA-Cysteine], in series [1], the “Φ (quantum yield)” value is 54.2%, the “λem (maximum emission wavelength)” value was found to be 431 nm, the “λex (maximum excitation wavelength)” value is given as 366 nm and the “ϵ (extinction coefficiency)” value was determined as 11.6 M⁻¹ cm⁻¹.
